The values below come from patent publication US8389569B2, “Polyspirane compounds, application thereof in the treatment of malaria or toxoplasmosis and method for preparing same” (Universite Joseph Fourier, priority 2007, dated 2013).

Read-outs that look alike come from different tables or passages of the source.

The test system of assay [1] is Toxoplasma (RH-β1 strain) in HFF (Human Foreskin Fibroblast) cells. Briefly: Antitoxoplasmic activity in vitro, colorimetric microtitre proliferation test. The assay is classed as cell-based, Toxoplasma gondii. Here is the method: The test implemented here is a colorimetric microtitre test. A monolayer of HFF (Human Foreskin Fibroblast) cells is infected, in a synchronous manner, by the parasite (10^4 parasites per well, RH-β1 strain). After washing, increasing doses (from 50 nM to 100 μM) of compound are added, except to the control well (addition, or no addition, of DMSO). After incubation for 48 hours, the β-galactosidase activity is measured by the addition of a substrate of the enzyme, chlorophenol red β-D-galactopyranoside (CPRG). The plates are again incubated (from 30 min to 16 h at 37° C.) before being read at 570 and 630 nm.

Assay [2] has as its system Plasmodium falciparum 3D7 strain (chloroquine-sensitive). Put plainly: Antimalarial activity in vitro, [3H]-hypoxanthine isotopic microtest. The assay is classed as cell-based. To be noted: asynchronous culture of infected erythrocytes, 48 hours + 18 hours [3H]-hypoxanthine, read-out: Plasmodium Proliferation test 3D7 strain (IC 50). Here is the method:
Before experimentation, parasites of the 3D7 strain (chloroquine-sensitive, […] de Waal H. A. and F. […] ATCC no.: MRA-102) of Plasmodium falciparum are maintained in culture according to the Trager and Jansen method (Trager and Jansen, 1976). The antimalarial activity is measured in vitro on an asynchronous culture of erythrocytes infected with Plasmodium falciparum according to a modified method ([…] et al., 2003) based on the Desjardins isotopic microtest (Desjardins et al., 1979). […] After incubation for 48 hours, 0.5 μCi [^3H]-hypoxanthine (a precursor necessary for the synthesis of the radiolabelled nucleic acids of the parasite) are added to each microtitre plate well. After incubation for 18 hours, the hypoxanthine incorporation reaction is stopped and the cells lysed by direct freezing at -80° C. After thawing, the parasitic macromolecules, including the radiolabelled nucleic acids, are collected on a filter by means of a cell collector. A scintillation cocktail is added to the filter and the incorporated radioactivity is then measured with a scintillation counter. The radioactive background noise is measured starting from non-infected erythrocytes and subtracted from each filter measurement. The viability of the parasites treated with the compound to be tested is measured by their ability to synthesize nucleic acids from a radiolabelled precursor ([H^3]-hypoxanthine) in comparison with the control parasites cultured in the absence of the compound and is expressed as a percentage of the control. The measurements are analyzed by means of the Graphpad Prism software and the IC50 (concentration of compound able to inhibit 50% of the parasites' growth in vitro) is determined graphically. The results obtained appear in the form of IC50 in the table and are the result of two experiments carried out independently (different parasite cultures, different dilutions) in duplicate.

Assay [3] deals with synchronized Plasmodium falciparum parasites (ring, trophozoite, schizont). Put plainly: Minimum contact time necessary for cytotoxicity as a function of the parasitic stage (time-course). The assay is classed as cell-based. Particulars: 20×IC50, contact 30 min to 9 h; for activity on the different blood stages of the parasite (FIG. 11): viability as % of control; for speed and reversibility of the action (FIG. 11): washed, viability read at next cycle. As to the method: A culture of Plasmodium falciparum parasites is synchronized with VarioMACS (which retains the mature forms, which synthesize a pigment: haemozoin). After the culture has been passed through a VarioMACS column for 6 h, the synchronization range of the parasites is restricted by a second synchronization with 5% sorbitol (which retains only the young, so-called ring stage) at time t0, i.e. a short time after the invasion of healthy erythrocytes by the merozoites originating from the schizonts obtained by synchronization with the VarioMACS. The parasites are then brought into contact during each stage (ring, then trophozoite then schizont) with a fixed concentration of compound (20×IC50 previously defined by the above protocol) and for variable periods of time (30 min, 1 h 30 min, 3 h, 5 h, 7 h and 9 h in the case of parasites treated in the ring stage; 30 min, 1 h 30 min, 3 h, 5 h and 7 h in the case of parasites treated in the trophozoite and schizont stage). At the end of the defined period of contact, the erythrocyte mat is washed twice in complete medium. At t0+44h, (i.e. at the start of the subsequent parasitic life cycle), the erythrocyte mats are resuspended and redistributed into 96-well plates (in sextuplicate), 0.5 μCi of tritiated [^3H]-hypoxanthine is then added to the culture medium. From then on, the treatment is the same as that of the abovementioned experiment with one difference: the results obtained appear in the form of a graph which represents the viability of the parasites expressed as a control percentage as a function of the time for which the culture is in contact with the compound to be tested.

Setting [4] is: HFF monolayer infected with RH-β1 strain, 48 hours incubation, β-galactosidase activity (CPRG), read-out: Toxoplasma Proliferation test (IC 50).
The mark [5] stands for this setting: Plasmodium falciparum, 3D7, Erythrocyte, 66 h.
Setting [6] is: Toxoplasma, Fibroblast, 48 h, read-out: Toxoplasma Proliferation test (IC 50), HFF monolayer infected with RH-β1 strain, 48 hours incubation, β-galactosidase activity (CPRG).

Consider 6-epi-aculeatin D [reference compound], for which the IC50 in assay [1] (setting [4]) was 0.377 µM; in assay [2], 0.451 µM.

`CCCOC(=O)C[C@@H]1C[C@@H](O)C[C@]2(CCC3(C=CC(=O)C=C3)O2)O1` (mixture of isomers) [10a, propyl (2S,4R,6R)- and (2R,4S,6S)-(4-Hydroxy-1′-oxo-1,7-dioxadispiro[5.1.5.2]pentadeca-9,12-dien-2-yl)-acetate]: the figures for the IC50 in assay [1] (setting [4]) and in assay [2] were 0.5 µM and 1.84 µM, respectively.

For `CCCCCCC(=O)OC1CC2(CC[C@]3(C=CC(=O)C=C3)O2)O[C@@]2(CC[C@]3(C=CC(=O)C=C3)O2)C1` (mixture of isomers) [16a, (8R,10S,21S)- and (8S,10R,21R)-Heptanoate of 7,9,11-trioxatetraspiro[5.1.1.1.5^12.2^10.3^8.2^6]tetracosa-1,4,13,16-dien-3,15-on-21-yl], the IC50 in assay [2] (setting [5]) stood at 0.343 µM.

For the compound `CCCCCCCCCCCCCC(=O)OC1CC2(CC[C@]3(C=CC(=O)C=C3)O2)O[C@@]2(CC[C@]3(C=CC(=O)C=C3)O2)C1` (mixture of isomers) [16c, (8R,10S,21S)- and (8S,10R,21R)-Tetradecanoate of 7,9,11-trioxatetraspiro[5.1.1.1.5^12.2^10.3^8.2^6]tetracosa-1,4,13,16-dien-3,15-on-21-yl], the IC50 in assay [1] (setting [6]) was found to be 0.346 µM. Besides, the IC50 in assay [2] (setting [5]) came out at 0.0815 µM. In assay [3], the “activity on the different blood stages of the parasite (FIG. 11)” value was “active on the different blood stages (rings, trophozoites and schizonts)”; the “speed and reversibility of the action (FIG. 11)” value is “extremely rapid and is not reversible”.

Regarding `CCCCCCCCCCOC(=O)C[C@@H]1C[C@@H](O)C[C@]2(CCC3(C=CC(=O)C=C3)O2)O1` (racemic) [10b, decyl (2S,4R,6R)- and (2R,4S,6S)-(4-Hydroxy-11-oxo-1,7-dioxadispiro[5.1.5.2]pentadeca-9,12-dien-2-yl)-acetate], the figures for the IC50 in assay [1] (setting [6]) and in assay [2] (setting [5]) were 0.341 µM and 0.654 µM, respectively.

`CCCCCCCCCCCCCCCCCCOC(=O)C[C@@H]1C[C@@H](O)C[C@]2(CCC3(C=CC(=O)C=C3)O2)O1` (racemic) [10c, octadecyl (2S,4R,6R)- and (2R,4S,6S)-(4-Hydroxy-11-oxo-1,7-dioxadispiro[5.1.5.2]pentadeca-9,12-dien-2-yl)-acetate]: the IC50 was 2.4 µM in assay [1] (setting [6]) and 0.77 µM in assay [2] (setting [5]).

`CCCCCCN(CCCCCC)C(=O)C[C@@H]1C[C@@H](O)C[C@]2(CCC3(C=CC(=O)C=C3)O2)O1` (racemic) [10e, (2S,4R,6R)- and (2R,4S,6S)—N,N-dihexyl-2-(4-hydroxy-11-oxo-1,7-dioxadispiro[5.1.5.2]pentadeca-9,12-dien-2-yl)-acetamide]: the IC50 in assay [2] (setting [5]) was 0.899 µM.

Take `CCCCCCCCCCOC(=O)CC1CC(O)C[C@@]2(CCC3(C=CC(=O)C=C3)O2)O1` (mixture of isomers) [11b, (2S,4R,6S)- and decyl (2R,4S,6R)-(4-Hydroxy-11-oxo-1,7-dioxadispiro[5.1.5.2]pentadeca-9,12-dien-2-yl)-acetate]: the IC50 in assay [1] (setting [6]) came to 1.64 µM; in assay [2] (setting [5]) it was 1.36 µM.

Take `CCCCCCCCCCCCCCCCCCOC(=O)C[C@@H]1C[C@H](O)C[C@]2(CCC3(C=CC(=O)C=C3)O2)O1` (racemic) [12c, octadecyl (2S,4S,6R)- and (2R,4R,6S)-(4-Hydroxy-11-oxo-1,7-dioxadispiro[5.1.5.2]pentadeca-9,12-dien-2-yl)-acetate]: the IC50 in assay [1] (setting [6]) was found to be 3.54 µM; in assay [2] (setting [5]) it was 1.03 µM.

As for `CCCCCCCCCCCCCCCCCCOC(=O)C[C@@H]1C[C@H](O)C[C@@]2(CCC3(C=CC(=O)C=C3)O2)O1` (racemic) [13c, octadecyl (2S,4S,6S)- and (2R,4R,6R)-(4-Hydroxy-11-oxo-1,7-dioxadispiro[5.1.5.2]pentadeca-9,12-dien-2-yl)-acetate], the values for the IC50 in assay [1] (setting [6]) and in assay [2] (setting [5]) were 3.52 µM and 1.13 µM, respectively.

Regarding `O=C1C=CC2(C=C1)CC[C@]1(CC(O)C[C@@]3(CCC4(C=CC(=O)C=C4)O3)O1)O2` (stereo partly drawn) [4a, (8R,10S,21S)- and (8S,10R,21R)-21-Hydroxy-7,9,11-trioxatetraspiro[5.1.1.1.5^12.2^10.3^8.2^6]tetracosa-1,4,13,16-dien-3,15-one], the IC50 came to 0.173 µM in assay [1] (setting [4]) and 0.414 µM in assay [2].

Take `O=C1C=C[C@]2(C=C1)CCC1(CC(O)C[C@]3(CC[C@@]4(C=CC(=O)C=C4)O3)O1)O2` (stereo partly drawn) [4b, (8R,10R,21S)-21-Hydroxy-7,9,11-trioxatetraspiro[5.1.1.1.5^12.2^10.3^8.2^6]tetracosa-1,4,13,16-dien-3,15-one]: the IC50 was 1.5 µM in assay [1] (setting [6]) and 0.584 µM in assay [2] (setting [5]).

With `CCCCCCC(=O)OC1CC2(CC[C@]3(C=CC(=O)C=C3)O2)O[C@@]2(CC[C@]3(C=CC(=O)C=C3)O2)C1` (stereo partly drawn) [16b, (8R,10R,21S)-Heptanoate of 7,9,11-trioxatetraspiro[5.1.1.1.5^12.2^10.3^8.2^6]tetracosa-1,4,13,16-dien-3,15-on-21-yl], the IC50 in assay [2] turned out to be 0.331 µM.

Regarding `CCCCCCCCCCCCCC(=O)OC1CC2(CC[C@]3(C=CC(=O)C=C3)O2)O[C@@]2(CC[C@]3(C=CC(=O)C=C3)O2)C1` (stereo partly drawn) [16d, (8R,10R,21S)-Tetradecanoate of 7,9,11-trioxatetraspiro[5.1.1.1.5^12.2^10.3^8.2^6]tetracosa-1,4,13,16-dien-3,15-on-21-yl], the IC50 in assay [1] (read-out: Toxoplasma Proliferation test (IC 50), HFF monolayer infected with RH-β1 strain, 48 hours incubation, β-galactosidase activity (CPRG)) turned out to be 0.636 µM; in assay [2], 0.0917 µM. The “activity on the different blood stages of the parasite (FIG. 11)” value in assay [3] was “active on the different blood stages (rings, trophozoites and schizonts)”. Further, the “speed and reversibility of the action (FIG. 11)” value in assay [3] is “extremely rapid and is not reversible”.

With `CCCCCCCCCCCCCC(=O)CC(=O)OC1C[C@]2(CCC3(C=CC(=O)C=C3)O2)O[C@]2(CCC3(C=CC(=O)C=C3)O2)C1` (stereo partly drawn) [16e, (8R,10S,21S)- and (8S,10R,21R)-3-Oxohexadecanoate of 7,9,11-trioxatetraspiro[5.1.1.1.5^12.2^10.3^8.2^6]tetracosa-1,4,13,16-dien-3,15-on-21-yl], the IC50 in assay [2] was determined as 0.122 µM.

On to `CCCCCCCCCCCCC[C@@H]1C[C@@H](O)C[C@]2(CCC3(C=CC(=O)C=C3)O2)O1` [Natural aculeatin A, aculeatin A, reference compound], for which the IC50 in assay [1] (setting [4]) turned out to be 0.309 µM; in assay [2], 0.288 µM.

For `CCCCCCCCCCCCC[C@@H]1C[C@H](O)C[C@]2(CCC3(C=CC(=O)C=C3)O2)O1` [Natural aculeatin B, aculeatin B, reference compound], the IC50 was 0.365 µM in assay [1] (setting [4]) and 0.454 µM in assay [2].
